PubChem BioAssay AID1963825 (Molecular Pharmacology Branch, DTP, NCI, 2024)

Assay: Anticancer human tumor 997537-175-T-J1-PDC patient-derived colon adenocarcinoma cell line growth inhibition [POLQ]
Conditions: 997537-175-T-J1-PDC complex spheroid viability, combination with POLQ inhibitors; for IC50: curve of first compound; for viability, T/C: stronger effect = lower value
In short: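 Complex spheroid viability model combining PDC tumour cells with endothelial (HUVEC) and MSC stromal cells. Novobiocin, ART-558 or RP6685 were tested singly and in combination with standard and investigational anticancer drugs. Each was titrated in half-log steps from near clinical Cmax, or from 10 microM where Cmax was unknown.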

[1] = second compound 0.0316 µM, first compound 0.0316 µM
[2] = second compound 0.0316 µM, first compound 0.1 µM
[3] = second compound 0.0316 µM, first compound 0.316 µM
[4] = second compound 0.0316 µM, first compound 1 µM
[5] = second compound 0.1 µM, first compound 0.0316 µM
[6] = second compound 0.1 µM, first compound 0.1 µM
[7] = second compound 0.1 µM, first compound 0.316 µM
[8] = second compound 0.1 µM, first compound 1 µM
[9] = second compound 0.316 µM, first compound 0.0316 µM
[10] = second compound 0.316 µM, first compound 0.1 µM
[11] = second compound 0.316 µM, first compound 0.316 µM
[12] = second compound 0.316 µM, first compound 1 µM
[13] = second compound 1 µM, first compound 0.0316 µM
[14] = second compound 1 µM, first compound 0.1 µM
[15] = second compound 1 µM, first compound 0.316 µM
[16] = second compound 1 µM, first compound 1 µM
[17] = second compound 3.16 µM, first compound 0.0316 µM
[18] = second compound 3.16 µM, first compound 0.1 µM
[19] = second compound 3.16 µM, first compound 0.316 µM
[20] = second compound 3.16 µM, first compound 1 µM
[21] = second compound 10 µM, first compound 0.0316 µM
[22] = second compound 10 µM, first compound 0.1 µM
[23] = second compound 10 µM, first compound 0.316 µM
[24] = second compound 10 µM, first compound 1 µM
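Further: luminescence signal used as a surrogate for viable cells; spheroids exposed to drugs for seven days before readout.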

C=CC(=O)N1CCN(c2nc(=O)n(-c3c(C)ccnc3C(C)C)c3nc(-c4c(O)cccc4F)c(F)cc23)C(C)C1 (centres undefined) + COC1C(OC(N)=O)C(O)C(Oc2ccc3c(O)c(NC(=O)c4ccc(O)c(CC=C(C)C)c4)c(=O)oc3c2C)OC1(C)C
IC50 (second compound 0.0316 µM): > 10 µM
IC50 (second compound 0.1 µM): > 10 µM
IC50 (second compound 0.316 µM): > 10 µM
IC50 (second compound 1 µM): > 10 µM
IC50 (second compound 3.16 µM): > 10 µM
IC50 (second compound 10 µM): > 10 µM
viability, T/C [1]: 106%
viability, T/C [2]: 108%
viability, T/C [3]: 107%
viability, T/C [4]: 112%
viability, T/C (second compound 0.0316 µM, first compound 3.16 µM): 109%
viability, T/C (second compound 0.0316 µM, first compound 10 µM): 91.7%
viability, T/C [5]: 123%
viability, T/C [6]: 125%
viability, T/C [7]: 95.5%
viability, T/C [8]: 91.5%
viability, T/C (second compound 0.1 µM, first compound 3.16 µM): 115%
viability, T/C (second compound 0.1 µM, first compound 10 µM): 108%
viability, T/C [9]: 106%
viability, T/C [10]: 95.6%
viability, T/C [11]: 106%
viability, T/C [12]: 105%
viability, T/C (second compound 0.316 µM, first compound 3.16 µM): 117%
viability, T/C (second compound 0.316 µM, first compound 10 µM): 93.8%
viability, T/C [13]: 106%
viability, T/C [14]: 113%
viability, T/C [15]: 96.6%
viability, T/C [16]: 105%
viability, T/C (second compound 1 µM, first compound 3.16 µM): 109%
viability, T/C (second compound 1 µM, first compound 10 µM): 105%
viability, T/C [17]: 105%
viability, T/C [18]: 101%
viability, T/C [19]: 115%
viability, T/C [20]: 104%
viability, T/C (second compound 3.16 µM, first compound 3.16 µM): 101%
viability, T/C (second compound 3.16 µM, first compound 10 µM): 95.7%
viability, T/C [21]: 96.3%
viability, T/C [22]: 109%
viability, T/C [23]: 93%
viability, T/C [24]: 105%
viability, T/C (second compound 10 µM, first compound 3.16 µM): 104%
viability, T/C (second compound 10 µM, first compound 10 µM): 96.7%

C=CCn1c(=O)c2cnc(Nc3ccc(N4CCN(C)CC4)cc3)nc2n1-c1cccc(C(C)(C)O)n1 + Nc1ccc(C#CCN(C(=O)Cc2ncc(C(F)(F)F)cc2C(F)(F)F)c2ccc(F)cc2)nn1
IC50 (second compound 0.0316 µM): > 1 µM
IC50 (second compound 0.1 µM): > 1 µM
IC50 (second compound 0.316 µM): > 1 µM
IC50 (second compound 1 µM): > 1 µM
IC50 (second compound 3.16 µM): > 1 µM
IC50 (second compound 10 µM): > 1 µM
viability, T/C (second compound 0.0316 µM, first compound 0.00316 µM): 92.5%
viability, T/C (second compound 0.0316 µM, first compound 0.01 µM): 99.7%
viability, T/C [1]: 89.3%
viability, T/C [2]: 97.9%
viability, T/C [3]: 89.8%
viability, T/C [4]: 50.6%
viability, T/C (second compound 0.1 µM, first compound 0.00316 µM): 95.9%
viability, T/C (second compound 0.1 µM, first compound 0.01 µM): 96.8%
viability, T/C [5]: 94.4%
viability, T/C [6]: 95.1%
viability, T/C [7]: 98.4%
viability, T/C [8]: 73%
viability, T/C (second compound 0.316 µM, first compound 0.00316 µM): 92.6%
viability, T/C (second compound 0.316 µM, first compound 0.01 µM): 97.3%
viability, T/C [9]: 90.8%
viability, T/C [10]: 82%
viability, T/C [11]: 76.3%
viability, T/C [12]: 55.1%
viability, T/C (second compound 1 µM, first compound 0.00316 µM): 88.3%
viability, T/C (second compound 1 µM, first compound 0.01 µM): 104%
viability, T/C [13]: 94.4%
viability, T/C [14]: 84.5%
viability, T/C [15]: 92.9%
viability, T/C [16]: 62.2%
viability, T/C (second compound 3.16 µM, first compound 0.00316 µM): 81.3%
viability, T/C (second compound 3.16 µM, first compound 0.01 µM): 93.7%
viability, T/C [17]: 94.8%
viability, T/C [18]: 94.3%
viability, T/C [19]: 106%
viability, T/C [20]: 55.1%
viability, T/C (second compound 10 µM, first compound 0.00316 µM): 96.5%
viability, T/C (second compound 10 µM, first compound 0.01 µM): 85.5%
viability, T/C [21]: 87.6%
viability, T/C [22]: 80.9%
viability, T/C [23]: 97.4%
viability, T/C [24]: 72.9%
